Reference: patent US12178842B2, “PCSK9 antagonist compounds” (MERCK SHARP & DOHME LLC, priority 2019, dated 2024)

Columns and labels:
Format in all cases: binding
PCSK9 [1] = biological target: T1, PCSK9 (Homo sapiens, UniProt Q8NBP7); assay: PCSK9 Alexa FRET Ultra TR-FRET assay
T1 construct: biotin (biotinylated); purchased
Description: A separate solution containing 1920 nM of the AlexaFluor tagged cyclic peptide is made in the same buffer system. […] The reaction is incubated at room temperature for at least two hours prior to fluorescence measurements using an Envision Multilabel Reader. IC50 values are determined by fitting data to a sigmoidal dose-response curve using nonlinear regression. Ki is then calculated from the Ic50 and the KD of AF cyclic peptide. Counts (B-counts) of the europium-labeled PCSK9 are followed to observe if compounds are adversely affecting PCSK9. A fall off of the B-counts is likely indicates a false positive of inhibition. Data from this procedure is reported as “Ki Ultra=‘numerical value’ (data reported is nanomolar)”

PCSK9 [2] = biological target: T1, PCSK9; assay: PCSK9 Alexa FRET Standard TR-FRET assay
Description: A solution containing 1 nM biotinylated PCSK9+2.5 nM Lance Streptavidin Europium (Strep-Eu) is made in 50 mM HEPES pH 7.4, 0.15 M NaCl, 5 mM CaCl2, 0.01% BSA, and 0.01% Surfactant P20. A separate solution containing 40 nM of the AlexaFluor tagged cyclic peptide is made in the same buffer system. An Echo is used to transfer 0.750 ul of compound to an assay plate followed by the addition of 15 ul of PCSK9+Stept-Eu and 15 ul of AF peptide. The final assay volume is 30.750 ul containing 0.5 nM PCSK9, 1.25 nM Strep-Eu, and 20 nM AF cyclic peptide. The reaction is incubated at room temperature for at least two hours prior to fluorescence measurements using an Envision Multilabel Reader. IC50 values are determined by fitting data to a sigmoidal dose-response curve using nonlinear regression. Ki is then calculated from the Ic50 and the KD of AF cyclic peptide. Counts (B-counts) of the europium-labeled PCSK9 are followed to observe if compounds are adversely PCSK9. A fall off of the B-counts likely indicates a false positive of inhibition. Data from this procedure is reported as “A=‘numerical value’ (nanomolar)”

PCSK9 [3] = biological target: T1, PCSK9; assay: PCSK9 Alexa FRET Plus TR-FRET assay
Description: A separate solution containing 1920 nM of the AlexaFluor tagged cyclic peptide is made in the same buffer system. […] The reaction is incubated at room temperature for at least two hours prior to fluorescence measurements using an Envision Multilabel Reader. IC50 values are determined by fitting data to a sigmoidal dose-response curve using nonlinear regression. Ki is then calculated from the Ic50 and the KD of AF cyclic peptide. Counts (B-counts) of the europium-labeled PCSK9 are followed to observe if compounds are adversely affecting PCSK9. A fall off of the B-counts is likely indicates a false positive of inhibition. Data from this procedure is reported as “P=‘numerical value’ (nanomolar)”

[4] = Ki Ultra, calculated from IC50 and KD of AF cyclic peptide, 0.5 nM PCSK9, 960 nM AF cyclic peptide, read-out: Alexa FRET Ultra TR-FRET
[5] = Ki calculated from IC50 and KD of AF cyclic peptide Reagent A, 0.5 nM PCSK9, 20 nM AF cyclic peptide, read-out: Alexa FRET Stdt TR-FRET
[6] = Ki calculated from IC50 and KD of AF cyclic peptide Reagent B, 0.5 nM PCSK9, 960 nM AF cyclic peptide, read-out: Alexa FRET Plus TR-FRET

T1 sequence (Q8NBP7 153-692): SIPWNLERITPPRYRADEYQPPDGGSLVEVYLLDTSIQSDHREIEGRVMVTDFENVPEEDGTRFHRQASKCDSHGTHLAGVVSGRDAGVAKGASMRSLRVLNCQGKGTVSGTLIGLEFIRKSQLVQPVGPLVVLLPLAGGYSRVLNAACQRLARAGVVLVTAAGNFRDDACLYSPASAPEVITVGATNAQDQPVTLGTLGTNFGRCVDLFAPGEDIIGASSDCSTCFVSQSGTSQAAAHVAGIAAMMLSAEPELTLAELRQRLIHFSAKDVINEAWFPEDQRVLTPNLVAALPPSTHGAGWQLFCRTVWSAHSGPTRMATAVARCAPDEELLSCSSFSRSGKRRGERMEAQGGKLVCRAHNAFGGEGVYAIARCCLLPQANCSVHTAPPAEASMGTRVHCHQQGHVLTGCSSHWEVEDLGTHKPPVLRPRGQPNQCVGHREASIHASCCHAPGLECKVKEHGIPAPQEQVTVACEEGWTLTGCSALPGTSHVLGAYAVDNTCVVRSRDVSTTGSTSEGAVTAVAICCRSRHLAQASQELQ

Row | SMILES | Ki (PCSK9 [1]; [4]) [pM] | Ki (PCSK9 [2]; [5]) [pM] | Ki (PCSK9 [3]; [6]) [pM] | Ki (PCSK9 [2]) [pM] | Ki (PCSK9 [1]) [pM] | Ki (PCSK9 [3]) [pM]
1 | COc1ccc(C[C@@H]2NC(=O)[C@H]([C@@H](C)O)NC(=O)[C@@H]3[C@@H]4CCN3C(=O)[C@@H]3Cc5cn(c6ccc(F)cc56)CCCCCCN(Cc5ccc(cc5)CCNC(=O)[C@]5(C)CCCN5C2=O)C(=O)CCC(=O)N[C@@H](C)C(=O)N[C@H](CNC(=O)COCCOCCNC(=O)COCCOCCNC(=O)CC[C@H](NC(=O)CC[C@H](NC(=O)CCCCCCCCCCCCCCC(=O)O)C(=O)O)C(=O)O)C(=O)N[C@@H](Cc2cccc(c2)CNC(=O)CO4)C(=O)N3)cc1 [Ex-42] | 10 | < 1260 | < 6 | – | – | –
2 | COc1ccc(C[C@@H]2NC(=O)[C@H]([C@@H](C)O)NC(=O)[C@@H]3[C@@H]4CCN3C(=O)[C@@H]3Cc5cn(c6ccc(F)cc56)CCCCCCN(Cc5ccc(cc5)CCNC(=O)[C@]5(C)CCCN5C2=O)C(=O)CCC(=O)N[C@@H](C)C(=O)N[C@H](CNC(=O)CCOCCOCC[N+](C)(C)CCNC(=O)COCCOCCNC(=O)COCCOCCNC(=O)CC[C@@H](NC(=O)CC[C@@H](NC(=O)CCCCCCCCCCCCCCCCC(=O)O)C(=O)O)C(=O)O)C(=O)N[C@@H](Cc2cccc(c2)CNC(=O)CO4)C(=O)N3)cc1 [Ex-49] | 3 | – | < 6 | < 1260 | – | –
3 | COc1ccc(C[C@@H]2NC(=O)[C@H]([C@@H](C)O)NC(=O)[C@@H]3[C@@H]4CCN3C(=O)[C@@H]3Cc5cn(c6ccc(F)cc56)CCCCCCN(Cc5ccc(cc5)CCNC(=O)[C@]5(C)CCCN5C2=O)C(=O)CCC(=O)N[C@@H](C)C(=O)N[C@H](CNC(=O)COCCOCC[N+](C)(C)CCNC(=O)COCCOCCNC(=O)COCCOCCNC(=O)CC[C@H](NC(=O)CCCCCCCCOCCCCCCCCC(=O)O)C(=O)O)C(=O)N[C@@H](Cc2cccc(c2)CNC(=O)CO4)C(=O)N3)cc1 [Ex-50] | – | < 1260 | – | – | 5 | < 6
4 | COc1ccc(C[C@@H]2NC(=O)[C@H]([C@@H](C)O)NC(=O)[C@@H]3[C@@H]4CCN3C(=O)[C@@H]3Cc5cn(c6ccc(F)cc56)CCCCCN(Cc5ccc(cc5)CCNC(=O)[C@]5(C)CCCN5C2=O)C(=O)CCC(=O)N[C@@H](C)C(=O)N[C@H](CNC(=O)CCOCCOCC[N+](C)(C)CCNC(=O)COCCOCCNC(=O)COCCOCCNC(=O)CC[C@H](NC(=O)CC[C@H](NC(=O)CCCCCCCCCCCCCCCCC(=O)O)C(=O)O)C(=O)O)C(=O)N[C@@H](Cc2cccc(c2)CNC(=O)CO4)C(=O)N3)cc1 [Ex-51] | – | < 1260 | – | – | 5 | 7
5 | COc1ccc(C[C@@H]2NC(=O)[C@H]([C@@H](C)O)NC(=O)[C@@H]3[C@@H]4CCN3C(=O)[C@@H]3Cc5cn(c6ccc(F)cc56)CCCCCCN(Cc5ccc(cc5)CCNC(=O)[C@]5(C)CCCN5C2=O)C(=O)CCC(=O)N[C@@H](C)C(=O)N[C@H](CNC(=O)CCOCCOCC[N+](C)(C)CCNC(=O)Cc2c(C)n(C(=O)c5ccc(Cl)cc5)c5ccc(OC)cc25)C(=O)N[C@@H](Cc2cccc(c2)CNC(=O)CO4)C(=O)N3)cc1 [Ex-52] | 1 | < 1260 | < 6 | – | – | –
6 | COc1ccc(C[C@@H]2NC(=O)[C@H]([C@@H](C)O)NC(=O)[C@@H]3[C@@H]4CCN3C(=O)[C@@H]3Cc5cn(c6ccc(F)cc56)CCCCCCN(Cc5ccc(cc5)CCNC(=O)[C@]5(C)CCCN5C2=O)C(=O)CCC(=O)N[C@@H](C)C(=O)N[C@H](CNC(=O)COCCOCCNC(=O)CC[C@H](NC(=O)CCOCCOCC[N+](C)(C)CCNC(=O)COCCOCCNC(=O)COCCOCCNC(=O)CC[C@H](NC(=O)CCCCCCCCCCCCCCCCC(=O)O)C(=O)O)C(=O)O)C(=O)N[C@@H](Cc2cccc(c2)CNC(=O)CO4)C(=O)N3)cc1 [Ex-53] | – | < 1260 | – | – | 14 | 10

Further compounds by falling Ki (PCSK9 [1]; [4]), results first:

Row | Ki (PCSK9 [1]; [4]) [pM] | Ki (PCSK9 [2]; [5]) [pM] | Ki (PCSK9 [3]; [6]) [pM] | SMILES | Ki (PCSK9 [2]) [pM] | Ki (PCSK9 [1]) [pM] | Ki (PCSK9 [3]) [pM]
7 | 16 | < 1260 | 44 | CCCCCCCCCCCCCCCC(=O)NCC[N+](C)(C)CCOCCOCCC(=O)NC[C@H]1NC(=O)[C@H](C)NC(=O)CCC(=O)N2CCCCCCn3cc(c4cc(F)ccc43)C[C@@H]3NC(=O)[C@H](Cc4cccc(c4)CNC(=O)CO[C@H]4CCN(C3=O)[C@@H]4C(=O)N[C@@H]([C@@H](C)O)C(=O)N[C@@H](Cc3ccc(OC)cc3)C(=O)N3CCC[C@@]3(C)C(=O)NCCc3ccc(cc3)C2)NC1=O [Ex-36] | – | – | –
8 | 12 | < 1260 | 13 | CCCCCCCCCCCCCCCC(=O)NCC[N+](C)(C)CCOCCOCCC(=O)NCCOCCOCC(=O)NCCOCCOCC(=O)NC[C@H]1NC(=O)[C@H](C)NC(=O)CCC(=O)N2CCCCCCn3cc(c4cc(F)ccc43)C[C@@H]3NC(=O)[C@H](Cc4cccc(c4)CNC(=O)CO[C@H]4CCN(C3=O)[C@@H]4C(=O)N[C@@H]([C@@H](C)O)C(=O)N[C@@H](Cc3ccc(OC)cc3)C(=O)N3CCC[C@@]3(C)C(=O)NCCc3ccc(cc3)C2)NC1=O [Ex-38] | – | – | –
9 | 9 | < 1260 | < 6 | COc1ccc(C[C@@H]2NC(=O)[C@H]([C@@H](C)O)NC(=O)[C@@H]3[C@@H]4CCN3C(=O)[C@@H]3Cc5cn(c6ccc(F)cc56)CCCCCCN(Cc5ccc(cc5)CCNC(=O)[C@]5(C)CCCN5C2=O)C(=O)CCC(=O)N[C@@H](C)C(=O)N[C@H](CNC(=O)CCOCCOCC[N+](C)(C)CCNC(=O)COCCOCCNC(=O)CC[C@H](NC(=O)CC[C@H](NC(=O)CC[C@H](NC(=O)CCCCCCCCCCCCCCCCC(=O)O)C(=O)O)C(=O)O)C(=O)O)C(=O)N[C@@H](Cc2cccc(c2)CNC(=O)CO4)C(=O)N3)cc1 [Ex-48] | – | – | –
10 | 5 | < 1260 | < 6 | COc1ccc(C[C@@H]2NC(=O)[C@H]([C@@H](C)O)NC(=O)[C@@H]3[C@@H]4CCN3C(=O)[C@@H]3Cc5cn(c6ccc(F)cc56)CCCCCCN(Cc5ccc(cc5)CCNC(=O)[C@]5(C)CCCN5C2=O)C(=O)CCC(=O)N[C@@H](C)C(=O)N[C@H](CNC(=O)COCCOCCNC(=O)COCCOCCNC(=O)CC[C@H](NC(=O)CCCCCCCCCCCCCCC(=O)O)C(=O)O)C(=O)N[C@@H](Cc2cccc(c2)CNC(=O)CO4)C(=O)N3)cc1 [Ex-41] | – | – | –
11 | 4 | < 1260 | 8 | COc1ccc(C[C@@H]2NC(=O)[C@H]([C@@H](C)O)NC(=O)[C@@H]3[C@@H]4CCN3C(=O)[C@@H]3Cc5cn(c6ccc(F)cc56)CCCCCCN(Cc5ccc(cc5)CCNC(=O)[C@]5(C)CCCN5C2=O)C(=O)CCC(=O)N[C@@H](C)C(=O)N[C@H](CNC(=O)COCCOCC[N+](C)(C)CCNC(=O)COCCOCCNC(=O)COCCOCCNC(=O)CC[C@H](NC(=O)CCCCCCCCCCCCCCCCC(=O)O)C(=O)O)C(=O)N[C@@H](Cc2cccc(c2)CNC(=O)CO4)C(=O)N3)cc1 [Ex-40] | – | – | –
12 | 3 | < 1260 | < 6 | COc1ccc(C[C@@H]2NC(=O)[C@H]([C@@H](C)O)NC(=O)[C@@H]3[C@@H]4CCN3C(=O)[C@@H]3Cc5cn(c6ccc(F)cc56)CCCCCCN(Cc5ccc(cc5)CCNC(=O)[C@]5(C)CCCN5C2=O)C(=O)CCC(=O)N[C@@H](C)C(=O)N[C@H](CNC(=O)COCCOCCNC(=O)COCCOCCNC(=O)CCOCCOCC[N+](C)(C)CCNC(=O)CCCCCCCCCCCCCCC(=O)O)C(=O)N[C@@H](Cc2cccc(c2)CNC(=O)CO4)C(=O)N3)cc1 [Ex-39] | – | – | –
13 | 3 | < 1260 | < 6 | COc1ccc(C[C@@H]2NC(=O)[C@H]([C@@H](C)O)NC(=O)[C@@H]3[C@@H]4CCN3C(=O)[C@@H]3Cc5cn(c6ccc(F)cc56)C/C=C/CCCN(Cc5ccc(cc5)CCNC(=O)[C@]5(C)CCCN5C2=O)C(=O)CCC(=O)N[C@@H](C)C(=O)N[C@H](CNC(=O)CCOCCOCC[N+](C)(C)CCNC(=O)COCCOCCNC(=O)COCCOCCNC(=O)CC[C@H](NC(=O)CC[C@H](NC(=O)CCCCCCCCCCCCCCCCC(=O)O)C(=O)O)C(=O)O)C(=O)N[C@@H](Cc2cccc(c2)CNC(=O)CO4)C(=O)N3)cc1 [Ex-44] | – | – | –
14 | 3 | < 1260 | < 6 | COc1ccc(C[C@@H]2NC(=O)[C@H]([C@@H](C)O)NC(=O)[C@@H]3[C@@H]4CCN3C(=O)[C@@H]3Cc5cn(c6ccc(F)cc56)CCCCCCN(Cc5ccc(cc5)CCNC(=O)[C@]5(C)CCCN5C2=O)C(=O)CCC(=O)N[C@@H](C)C(=O)N[C@H](CNC(=O)COCCOCC[N+](C)(C)CCOCCNC(=O)COCCOCCNC(=O)COCCOCCNC(=O)CC[C@H](NC(=O)CC[C@H](NC(=O)CCCCCCCCCCCCCCC(=O)O)C(=O)O)C(=O)O)C(=O)N[C@@H](Cc2cccc(c2)CNC(=O)CO4)C(=O)N3)cc1 [Ex-47] | – | – | –
